Experiments:
[1] = test system: Plasmodium falciparum; assay: Antimalarial activity: Asexual Blood Stage Plasmodium falciparum 3D7 IC50 (uM); format: functional, organism-based
[2] = test system: Plasmodium berghei; assay: Antimalarial activity: Liver Stage Plasmodium berghei sporozoite Luciferase assay: inhibition at 10 uM (%); format: functional
[3] = test system: Plasmodium falciparum; assay: Antimalarial activity: Asexual Blood Stage Plasmodium falciparum W2 IC50 (uM); format: functional, organism-based
[4] = test system: Plasmodium falciparum; assay: Antimalarial activity: Gametocytes Plasmodium falciparum NF54 Gametocytes Stage V: inhibition at 10 uM (%); format: functional
[5] = test system: Plasmodium falciparum; assay: Antimalarial activity: Asexual Blood Stage Plasmodium falciparum Dd2 IC50 (uM); format: functional, organism-based
[6] = test system: HepG2; assay: HepG2 CC50 (uM) Cytotoxicity; format: functional; settings: Homo sapiens
[7] = test system: Plasmodium berghei; assay: Antimalarial activity: Liver Stage Plasmodium berghei sporozoite Luciferase assay IC50 (uM); format: functional, organism-based
[8] = test system: HepG2; assay: Cytotoxicity data HepG2 CC20 (uM); format: functional
[9] = test system: Trypanosoma brucei; assay: AntiTrypanosoma brucei activity T. b. rhodesiense IC50 (uM); format: functional, organism-based
[10] = test system: Trypanosoma cruzi; assay: AntiTrypanosoma cruzi activity IC50 (uM); format: functional, organism-based
[11] = test system: Trypanosoma brucei; assay: AntiTrypanosoma brucei activity T. b. brucei IC50 (uM); format: functional, organism-based
[12] = test system: Leishmania infantum; assay: AntiLeishmania activity L. infantum (macrophages) IC50 (uM); format: functional, organism-based
[13] = test system: MRC5; assay: MRC5 CC50 (uM) Cytotoxicity; format: functional; settings: Homo sapiens
[14] = PMM CC50 (uM) Cytotoxicity; format: functional; settings: Macrophage

Cc1ccc(NC(=O)c2cc(S(=O)(=O)NC(C)(C)C)ccc2C)nc1
IC50 [1]: 0.93 µM | Inhibition [2]: 82% | IC50 [3]: 1.18 µM | Inhibition [4]: 2% | IC50 [5]: 2.51 µM | CC50 [6]: > 7.5 µM | IC50 [7]: 7.35 µM | CC20 [8]: >80 µM

O=C(NC1CC1)c1ccc(N2CCC(Cc3ccccc3)CC2)nc1
IC50 [1]: 1.33 µM | Inhibition [2]: 100% | IC50 [3]: 0.82 µM | Inhibition [4]: 28% | IC50 [5]: 1.67 µM | CC50 [6]: > 10 µM | IC50 [7]: 1.41 µM | CC20 [8]: >80 µM

Cc1cc(C(=O)Nc2cnn(Cc3ccc(Cl)cc3Cl)c2)no1
IC50 [1]: 1.88 µM | Inhibition [2]: 98% | Inhibition [4]: 11% | IC50 [5]: > 2 µM | CC50 [6]: > 10 µM | IC50 [7]: 1.39 µM | CC20 [8]: 30.6 µM

C[C@H](C(N)=O)N1CCCC[C@H]1c1ccc(OCc2cccc(F)c2)cc1
IC50 [1]: > 2 µM | Inhibition [2]: 95% | Inhibition [4]: 0% | IC50 [5]: > 2 µM | CC50 [6]: > 10 µM | IC50 [7]: 1.36 µM | CC20 [8]: >80 µM

CO[C@@H](C(=O)N1Cc2[nH]nc(NC(=O)c3ccc(N4CCN(C)CC4)cc3)c2C1)c1ccccc1 [DANUSERTIB]
IC50 [9]: 0.37 µM | IC50 [10]: 6.48 µM | IC50 [11]: 1.02 µM | IC50 [12]: 4.06 µM | CC50 [13]: 2.7 µM | CC50 [14]: 4 µM | CC20 [8]: 4.83 µM

COc1ccc(CN2CCOc3ccc(C(C)(O)CN(C)C)cc3C2)cc1C (stereo not drawn)
IC50 [1]: > 2 µM | Inhibition [2]: 64% | Inhibition [4]: 7% | IC50 [5]: 1.47 µM | CC50 [6]: > 10 µM | IC50 [7]: 0.93 µM | CC20 [8]: 17.4 µM

CC(C)(C)C(O)C(Oc1ccc(-c2ccccc2)cc1)n1cncn1 (stereo not drawn) [BITERTANOL]
IC50 [9]: 28 µM | IC50 [10]: 0.06 µM | Inhibition [2]: 46% | IC50 [11]: 32.9 µM | IC50 [12]: > 64 µM | CC50 [13]: > 64 µM | CC50 [14]: > 64 µM

c1csc(-c2cnc3sc(NCC4CCOCC4)nn23)c1
IC50 [1]: 1.37 µM | Inhibition [2]: 58% | Inhibition [4]: 18% | IC50 [5]: 1.11 µM | CC50 [6]: > 10 µM | IC50 [7]: > 10 µM | CC20 [8]: 30 µM

Cc1nn(C)c(C)c1NS(=O)(=O)c1c(Cl)cc(-c2ccnc(N3CCNCC3)c2)cc1Cl
IC50 [9]: < 0.13 µM | IC50 [10]: 0.85 µM | IC50 [11]: < 0.13 µM | IC50 [12]: 1.01 µM | CC50 [13]: 2 µM | CC50 [14]: 1 µM | CC20 [8]: 0.05 µM

NS(=O)(=O)c1cncc(-c2ccc3nccc(-c4cn[nH]c4)c3n2)c1
IC50 [1]: 0.6 µM | Inhibition [2]: 96% | IC50 [3]: 0.73 µM | Inhibition [4]: 70% | IC50 [5]: 0.63 µM | IC50 [7]: 2.17 µM | CC20 [8]: 0.49 µM

O=C(NC1CC1)c1ccc(N2CCOc3ccc(Cl)cc32)s1
IC50 [1]: 1.03 µM | Inhibition [2]: 98% | Inhibition [4]: 18% | CC50 [6]: > 10 µM | IC50 [7]: 3.48 µM

c1ccc(Oc2ccc(-c3cc(N4CCNCC4)[nH]n3)cc2)cc1
IC50 [9]: 0.97 µM | IC50 [10]: 4.48 µM | IC50 [11]: 0.99 µM | IC50 [12]: 4.06 µM | CC50 [13]: 16 µM | CC50 [14]: 4 µM | CC20 [8]: 6.43 µM

N=C(N)c1ccc(-c2cc(-c3ccccc3)on2)cc1
IC50 [9]: 1.08 µM | IC50 [10]: 4.04 µM | IC50 [11]: 4.06 µM | IC50 [12]: 2.54 µM | CC50 [13]: 12.2 µM | CC50 [14]: 4 µM | CC20 [8]: 2.64 µM

CO[C@@H]1CN(c2ccc(C#CC3(O)CN4CCC3CC4)c(Cc3ccccc3)n2)C[C@H]1O (stereo partly drawn)
IC50 [9]: 4 µM | IC50 [10]: < 0.13 µM | IC50 [11]: 16.1 µM | IC50 [12]: 17.3 µM | CC50 [13]: > 32 µM | CC50 [14]: > 32 µM | CC20 [8]: 38.4 µM

CNC(=O)c1nn(C)c2c1C(C)(C)Cc1cnc(Nc3ccc(N4CCN(C)CC4)cc3)nc1-2 [MILCICLIB]
IC50 [9]: < 0.13 µM | IC50 [10]: 1.05 µM | IC50 [11]: < 0.13 µM | IC50 [12]: 0.85 µM | CC50 [13]: 1.1 µM | CC50 [14]: 1 µM | CC20 [8]: <0.26 µM

CO/N=C(\C(=O)OC)c1ccccc1CO/N=C(\C)c1cccc(C(F)(F)F)c1
IC50 [9]: 26.2 µM | IC50 [1]: 0.3 µM | IC50 [10]: 1.94 µM | Inhibition [2]: 100% | IC50 [11]: 33.6 µM | IC50 [12]: > 64 µM | CC50 [13]: > 64 µM | CC50 [14]: > 64 µM

CCc1nn(C)c(C(=O)NCc2ccc(Oc3ccc(C)cc3)cc2)c1Cl [TOLFENPYRAD]
IC50 [9]: 20.4 µM | IC50 [10]: 5.35 µM | Inhibition [2]: 94% | IC50 [11]: 33 µM | IC50 [12]: 45.6 µM | CC50 [13]: 56 µM | CC50 [14]: 48 µM

CC1=Nc2ccc(Cl)cc2C(O)(c2ccc(C)cc2)N1CCN1CCCCC1 (stereo not drawn)
IC50 [9]: 0.43 µM | IC50 [10]: 4.04 µM | IC50 [11]: 0.98 µM | IC50 [12]: 4.06 µM | CC50 [13]: 16 µM | CC50 [14]: 4 µM | CC20 [8]: 10 µM

c1cc(C2=NCCN2)cc(-c2cc(-c3ccc(C4=NCCN4)cc3)no2)c1
IC50 [9]: 3 µM | IC50 [10]: > 32 µM | IC50 [11]: 5.63 µM | IC50 [12]: > 32 µM | CC50 [13]: > 32 µM | CC50 [14]: > 32 µM | CC20 [8]: 4.51 µM

Nc1ccc(C(=O)Nc2ccc(-c3nc4ccccc4o3)cc2)cc1
IC50 [1]: 1.55 µM | Inhibition [2]: 89% | Inhibition [4]: 0% | IC50 [5]: > 2 µM | CC50 [6]: > 10 µM | IC50 [7]: > 10 µM | CC20 [8]: 18.2 µM

C[C@]1(O)C[C@@H](c2nc(-c3ccc4ccc(-c5ccccc5)nc4c3)c3c(N)nccn32)C1 [LINSITINIB]
IC50 [1]: > 2 µM | Inhibition [2]: 98% | Inhibition [4]: 16% | IC50 [5]: > 2 µM | CC50 [6]: > 10 µM | IC50 [7]: 0.36 µM | CC20 [8]: 4.67 µM

CC1COC(Cn2cncn2)(c2ccc(Oc3ccc(Cl)cc3)cc2Cl)O1 (stereo not drawn) [DIFENOCONAZOLE]
IC50 [9]: 26.2 µM | IC50 [10]: 0.01 µM | Inhibition [2]: 85% | IC50 [11]: 32.5 µM | IC50 [12]: 44.7 µM | CC50 [13]: 30.9 µM | CC50 [14]: > 64 µM

CCc1ccccc1-n1c(C)cn2c3c(=O)n(C(C(=O)OC)C(C)C)c(=O)n(C)c3nc12 (stereo not drawn)
IC50 [9]: < 0.13 µM | IC50 [10]: 0.99 µM | IC50 [11]: < 0.13 µM | IC50 [12]: > 32 µM | CC50 [13]: > 32 µM | CC50 [14]: > 32 µM | CC20 [8]: 44.3 µM

COc1cc(C2=NCCN2)cc2cc(-c3ccc(C4=NCCN4)cc3)oc12
IC50 [9]: 0.78 µM | IC50 [10]: 13.3 µM | IC50 [11]: 14.5 µM | IC50 [12]: > 32 µM | CC50 [13]: > 32 µM | CC50 [14]: > 32 µM | CC20 [8]: 14.3 µM

COc1cc(C2=NCCN2)ccc1-c1cn(-c2cccc(C3=NCCN3)c2)nn1
IC50 [9]: 3.72 µM | IC50 [10]: 25 µM | IC50 [11]: > 32 µM | IC50 [12]: > 32 µM | CC50 [13]: > 32 µM | CC50 [14]: > 32 µM | CC20 [8]: 22.9 µM

O=C(Nc1ccc2c(c1)B(O)OC2)c1ccccc1C(F)(F)F
IC50 [9]: 0.23 µM | IC50 [10]: 0.27 µM | IC50 [11]: 0.15 µM | IC50 [12]: 1.41 µM | CC50 [13]: > 32 µM | CC50 [14]: 16 µM | CC20 [8]: 0.41 µM

C[C@H](C(N)=O)N1CCCC[C@@H]1c1ccc(OCc2cccc(F)c2)cc1
Inhibition [2]: 99% | Inhibition [4]: 5% | CC50 [6]: > 10 µM | IC50 [7]: 1.77 µM | CC20 [8]: 21.8 µM

— ChEMBL document CHEMBL3832761, “MMV Pathogen Box Bioactivity Data” (2017)
